Measurements reported in PMC12865225 (Clinical and Translational Science, 2026).

Legend:
MRP4 = system: T1, MRP4; assay: Efflux transport assay in MRP4 HEK293 membrane vesicles; assay type: biochemical, human; conditions: 5 and 50 µM, 10 min
T1 construct: expressed in transfected cells; host or cells: HEK293 cells

OATP2B1 = molecular target: T2, OATP2B1 (Homo sapiens, UniProt O94956); assay: Uptake transport assay in OATP2B1-expressing HEK293 cells; assay type: cell-based; conditions: for transport by OATP2B1: 2 and 50 μM, 10 min; for Vmax (pmol/106 cells/min) OATP2B1: uptake, 2 min
T2 construct: expressed in transfected cells; host or cells: HEK293 (recombinant baculovirus-mediated transduction)
T2 sequence (O94956 1-709): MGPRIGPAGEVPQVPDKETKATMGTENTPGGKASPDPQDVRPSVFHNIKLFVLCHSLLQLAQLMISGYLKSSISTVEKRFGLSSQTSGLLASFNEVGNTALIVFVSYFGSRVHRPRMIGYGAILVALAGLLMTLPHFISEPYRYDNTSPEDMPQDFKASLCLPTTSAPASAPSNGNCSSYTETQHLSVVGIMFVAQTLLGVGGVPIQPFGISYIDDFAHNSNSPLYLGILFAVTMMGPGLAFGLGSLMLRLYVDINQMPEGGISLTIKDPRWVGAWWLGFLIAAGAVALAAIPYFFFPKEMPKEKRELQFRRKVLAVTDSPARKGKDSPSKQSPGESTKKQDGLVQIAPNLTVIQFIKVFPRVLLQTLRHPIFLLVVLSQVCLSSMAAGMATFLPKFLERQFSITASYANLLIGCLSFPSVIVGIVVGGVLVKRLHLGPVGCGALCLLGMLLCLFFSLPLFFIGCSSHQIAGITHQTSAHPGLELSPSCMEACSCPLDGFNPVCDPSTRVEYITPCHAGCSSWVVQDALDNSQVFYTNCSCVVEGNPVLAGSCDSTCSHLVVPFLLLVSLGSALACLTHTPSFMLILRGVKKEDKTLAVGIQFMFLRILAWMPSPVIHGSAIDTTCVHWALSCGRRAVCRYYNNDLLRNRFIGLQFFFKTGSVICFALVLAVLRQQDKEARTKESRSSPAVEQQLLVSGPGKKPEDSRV
Experimental: (§1) The human transporters OATP1B1, OATP1B3, OATP2B1, and OAT1‐OAT4 and a negative control protein (enhanced yellow fluorescent protein, eYFP) were transiently expressed in human embryonic kidney 293 (HEK293) cells by recombinant baculovirus‐mediated transduction. Baculoviruses carrying human genes for the transporters were prepared as reported previously. HEK293 cells were cultured in DMEM containing 10% fetal bovine serum at 37°C and 5% CO2 and passaged two to three times per week. For the transport studies, 0.05 × 10^6 cells for 48‐well plates (OATPs) or 0.06 × 10^6 cells for 24‐well plates (OATs) were seeded onto cell‐culture treated well plates coated with poly‐D‐lysine. After 1 day, cells were transduced to produce recombinant proteins by changing media to DMEM containing 30 μL (48‐well plates) or 60 μL (24‐well plates) of recombinant baculovirus and 3 mM (OATs) or 5 mM (OATPs) sodium butyrate in a total media volume of 500 μL. The cells were cultured for a further 2 days before the transport assays.
For the transport studies, media were removed and cells were washed once with warm transport uptake buffer (TP‐buffer—pH 7.4 HBSS with 25 mM HEPES and 4 mM sodium bicarbonate). Each experiment included triplicate (OATP) or duplicate (OAT) samples for every test condition. The uptake was started by removing liquid from wells and applying warm TP‐buffer (200 μL for 24‐well plates or 125 μL for 48‐well plates) containing a test compound to cells. Transport assays were terminated after a pre‐specified incubation time (reported in figure legends) by removing substrate solution and washing cells three times with cold TP‐buffer (300 μL for 48‐well plates and 400 μL for 24‐well plates). For the liquid chromatography mass spectrometry (LC–MS) analysis, compounds were extracted from cells with 125 μL (48‐well plates) or 250 μL (24‐well plates) of an ultrapure‐water solution containing 75% methanol and 0.1% formic acid, shaking at 250 RPM for 30 min. […] Samples were transferred to well plates, centrifuged at 3000 g for 30 min, and transferred to a new well plate for the analysis.
Equation (2) (the Michaelis–Menten equation) was fit to the transport kinetic assay data. […] (2) Uptake=Vmax×S/Km+S

OAT2 [1] = system: T3, OAT2; assay: Uptake transport assay in OAT2-expressing HEK293 cells; assay type: cell-based, human; conditions: 2 and 50 μM, 10 min
T3 construct: expressed in transfected cells; host or cells: HEK293 (recombinant baculovirus-mediated transduction)
Experimental: as §1
(§2) For the transport studies, media were removed and cells were washed once with warm transport uptake buffer (TP‐buffer—pH 7.4 HBSS with 25 mM HEPES and 4 mM sodium bicarbonate). Each experiment included triplicate (OATP) or duplicate (OAT) samples for every test condition. […]

MRP2 = system: T4, MRP2; assay: Efflux transport assay in MRP2 HEK293 membrane vesicles; assay type: biochemical, human; conditions: 5 and 50 µM, 10 min
T4 construct: made in house; host or cells: membrane vesicles from HEK293 cells expressing the transporter

OAT1 = system: T5, OAT1; assay: Uptake transport assay in OAT1-expressing HEK293 cells; assay type: cell-based, human; conditions: 2 and 50 μM, 10 min
T5 construct: expressed in transfected cells; host or cells: HEK293 (recombinant baculovirus-mediated transduction)
Experimental: as §1, §2

OAT2 [2] = system: T3, OAT2; assay: OAT2 inhibition, methotrexate uptake into HEK293 cells; assay type: cell-based, human; conditions: 200 μM inhibitor, 34 nM methotrexate
Experimental: as §1, with “After 1 day, cells were transduced to produce recombinant proteins by changing media to DMEM containing 30 μL (48‐well plates) or 60 μL (24‐well plates) of recombinant baculovirus and 3 mM (OATs) or 5 mM (OATPs) sodium butyrate in a total media volume of 500 μL. The cells were cultured for a further 2 days before the transport assays.” left out
In the OATP inhibition assays, inhibitors in warm TP‐buffer were directly applied to cells after media removal, followed by a 30‐min preincubation step in the presence of inhibitors. […] OAT1 and OAT3 cells were lysed with 200 μL of 1 M sodium hydroxide for 10 min, and 150 μL of these samples were transferred to a black well plate for fluorescein quantification. […]
For the inhibition data analysis, the average of measured concentrations in the control cells was subtracted from the average of measured concentrations in transporter‐expressing cells for each inhibitor concentration and then normalized to the vehicle sample that represents 100% transport activity. […]

| Structure (SMILES) | transport by MRP4 (MRP4) | transport by OATP2B1 (OATP2B1) | Vmax (pmol/106 cells/min) OATP2B1 (OATP2B1) [pmol/106 cells/min] | transport by OAT2 (OAT2 [1]) | transport by MRP2 (MRP2) | transport by OAT1 (OAT1) | inhibition of OAT2-mediated transport of methotrexate (OAT2 [2]) |
| --- | --- | --- | --- | --- | --- | --- | --- |
| Cc1onc(-c2c(F)cccc2Cl)c1C(=O)N[C@@H]1C(=O)N2[C@@H]1SC(C)(C)[C@@H]2C(=O)O [Flucloxacillin] | did not transport | transported | 74.9 | transported | did not transport | transported | neither compound substantially inhibited |
| Cc1onc(-c2c(Cl)cccc2Cl)c1C(=O)N[C@@H]1C(=O)N2[C@@H]1SC(C)(C)[C@@H]2C(=O)O [Dicloxacillin] | did not transport | transported | 61.5 | transported | did not transport | transported | neither compound substantially inhibited |
